Key:
[1] = test system: proteins of Mit (mitochondrial fraction of liver homogenate); assay: Covalent adduct formation of NSAIDs-AG with proteins of mitochondrial fraction (Mit); type: binding, rat; settings: 180 μM, 1 mg/mL, 6 h
[2] = test system: proteins of Nuc (nuclear fraction of liver homogenate); assay: Covalent adduct formation of NSAIDs-AG with proteins of nuclear fraction (Nuc); type: binding, rat; settings: 180 μM, 1 mg/mL, 6 h
[3] = test system: proteins of Cyt (cytosolic fraction of liver homogenate); assay: Covalent adduct formation of NSAIDs-AG with proteins of cytosolic fraction (Cyt); type: binding, rat; settings: 180 μM, 1 mg/mL, 6 h
[4] = parameters: method as in PMID 1642643; settings: plasma at physiological pH and temperature; cited from earlier work
[5] = parameters: method as in PMID 9571227; settings: cited from earlier work
UGT2B7 = molecular target: T1, UGT2B7 (Homo sapiens, UniProt P16662); assay: Covalent adduct formation of NSAIDs-AG with UGT2B7; type: binding; settings: 180 μM, UGT 3.4 μM, 6 h
T1 construct: purchased Corning, Inc
T1 sequence (P16662 24-529): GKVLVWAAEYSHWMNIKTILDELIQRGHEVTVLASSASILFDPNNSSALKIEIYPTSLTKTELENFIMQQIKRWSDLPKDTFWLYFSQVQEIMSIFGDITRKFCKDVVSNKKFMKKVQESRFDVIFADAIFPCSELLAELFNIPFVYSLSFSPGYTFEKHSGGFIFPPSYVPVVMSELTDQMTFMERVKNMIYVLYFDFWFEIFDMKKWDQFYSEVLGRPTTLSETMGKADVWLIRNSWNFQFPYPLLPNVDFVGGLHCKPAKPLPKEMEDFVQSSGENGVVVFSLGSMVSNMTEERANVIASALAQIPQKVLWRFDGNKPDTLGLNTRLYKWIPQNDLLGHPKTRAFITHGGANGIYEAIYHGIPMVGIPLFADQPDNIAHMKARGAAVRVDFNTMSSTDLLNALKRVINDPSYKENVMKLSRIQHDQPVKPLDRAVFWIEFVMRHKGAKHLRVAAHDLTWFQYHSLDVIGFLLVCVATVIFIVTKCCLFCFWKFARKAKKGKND
Protocol: (§1) The concentrations of UGT were set at 3.4 μM by the preliminary experiments on the linearity of covalent adduct formation. The covalent adduct formation of NSAIDs-AG with organelle proteins and UGT was determined according to previous reports on NSAIDs-AG with albumin with some modifications. After a deproteinization of the reaction mixture, methanol/diethyl ether (3:1) was added to the pellet. […] The concentrations of the parent NSAIDs were measured using liquid chromatography-tandem mass spectrometry (LC-MS/MS). Aliquots of 10 μL were injected into the LC-MS/MS system. The LC-MS/MS equipment consisted of an LC system (UltiMate 3000 series, Thermo Fisher Scientific, Inc.) and TSQ Endura Triple Quadrupole Mass Spectrometer with electrospray ionization (Thermo Fisher Scientific, Inc.). Finnigan Xcalibur software (Thermo Fisher Scientific, Inc.) was used for data recording and analysis. Analysis was further performed using a reversed-phase column (COSMOSIL 5C18-MSII, 2.0 mm × 150 mm, 5 μm; Nacalai Tesque, Inc.). The column temperature was set to 40 °C, and the autosampler was maintained at 10 °C. The mobile phase (A; 30% methanol in 8.5 mM ammonium formate and 0.0075% formic acid, and B; 90% methanol in 8.5 mM ammonium formate and 0.0075% formic acid) was pumped at a flow rate of 0.2 mL/min. The initial mobile phase composition was maintained at 30% mobile phase B for 1 min, changed linearly to 90% mobile phase B from 1 to 8 min, maintained for 1 min, returned to 30% mobile phase B from 9 to 10 min, and maintained for 1 min for chromatographic column equilibrium. The MS scan was operated in positive ionization mode for DIC, MEF, ZOM, KET, and NAP, or negative ionization mode, for FLU. The conditions for electrospray ionization were set at 3500 V spray voltage for positive ionization mode and 2500 V spray voltage for negative ionization mode at 400 °C capillary temperature, and 300 °C vaporizer temperature with 40 arbitrary units of nitrogen sheath gas and 10 arbitrary units of auxiliary gas. The MS scan was operated in the positive or negative ionization mode. The selected reaction monitoring (SRM) mode was used, with argon as the collision gas at 1.5 mTorr. The mass resolution was set at 0.7 full-width at half-height (unit resolution). SRM transitions (precursor and product ions) were mass to charge ratios of (m/z) 296 > 214 for DIC (positive ionization mode), 294 > 250 for DIC (negative ionization mode), 242 > 224 for MEF, 292 > 139 for ZOM, 243 > 198 for R- and S-FLU, 255 > 209 for R- and S-KET, 231 > 185 for R- and S-NAP, and 302 > 220 for DIC-d4. The collision energies were 15 V for DIC (negative ionization mode), ZOM, MEF, FLU, KET, and NAP; 35 V for DIC (positive ionization mode); and DIC-d4. The concentrations of NSAIDs were determined from a single-point calibration in every assay for NSAIDs after confirmation of linearity between area and concentrations of NSAIDs.

UGT1A1 = molecular target: T2, UGT1A1 (Homo sapiens, UniProt P22309); assay: Covalent adduct formation of NSAIDs-AG with UGT1A1; type: binding; settings: R vs S diastereomer; 180 μM, UGT 3.4 μM, 6 h
T2 construct: purchased Corning, Inc
T2 sequence (P22309 26-533): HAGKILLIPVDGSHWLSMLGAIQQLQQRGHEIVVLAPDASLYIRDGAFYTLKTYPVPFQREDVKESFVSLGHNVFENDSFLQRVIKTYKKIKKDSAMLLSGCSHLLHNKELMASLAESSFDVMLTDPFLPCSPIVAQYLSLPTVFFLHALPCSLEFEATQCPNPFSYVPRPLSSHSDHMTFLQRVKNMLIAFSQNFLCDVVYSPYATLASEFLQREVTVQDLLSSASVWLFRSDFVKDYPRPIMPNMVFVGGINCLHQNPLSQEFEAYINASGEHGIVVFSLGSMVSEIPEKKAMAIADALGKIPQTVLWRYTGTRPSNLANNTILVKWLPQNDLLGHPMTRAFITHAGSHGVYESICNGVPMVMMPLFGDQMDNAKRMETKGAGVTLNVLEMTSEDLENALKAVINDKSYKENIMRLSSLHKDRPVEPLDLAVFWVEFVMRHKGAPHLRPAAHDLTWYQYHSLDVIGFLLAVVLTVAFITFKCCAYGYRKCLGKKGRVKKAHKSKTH
Protocol: as §1, with “The conditions for electrospray ionization were set at 3500 V spray voltage for positive ionization mode and 2500 V spray voltage for negative ionization mode at 400 °C capillary temperature, and 300 °C vaporizer temperature with 40 arbitrary units of nitrogen sheath gas and 10 arbitrary units of auxiliary gas. The MS scan was operated in the positive or negative ionization mode. The selected reaction monitoring (SRM) mode was used, with argon as the collision gas at 1.5 mTorr. The mass resolution was set at 0.7 full-width at half-height (unit resolution). SRM transitions (precursor and product ions) were mass to charge ratios of (m/z) 296 > 214 for DIC (positive ionization mode), 294 > 250 for DIC (negative ionization mode), 242 > 224 for MEF, 292 > 139 for ZOM, 243 > 198 for R- and S-FLU, 255 > 209 for R- and S-KET, 231 > 185 for R- and S-NAP, and 302 > 220 for DIC-d4. The collision energies were 15 V for DIC (negative ionization mode), ZOM, MEF, FLU, KET, and NAP; 35 V for DIC (positive ionization mode); and DIC-d4.” left out

UGT2B4 = molecular target: T3, UGT2B4 (Homo sapiens, UniProt P06133); assay: Covalent adduct formation of NSAIDs-AG with UGT2B4; type: binding; settings: 180 μM, UGT 3.4 μM, 6 h
T3 construct: purchased Corning, Inc
T3 sequence (P06133 24-528): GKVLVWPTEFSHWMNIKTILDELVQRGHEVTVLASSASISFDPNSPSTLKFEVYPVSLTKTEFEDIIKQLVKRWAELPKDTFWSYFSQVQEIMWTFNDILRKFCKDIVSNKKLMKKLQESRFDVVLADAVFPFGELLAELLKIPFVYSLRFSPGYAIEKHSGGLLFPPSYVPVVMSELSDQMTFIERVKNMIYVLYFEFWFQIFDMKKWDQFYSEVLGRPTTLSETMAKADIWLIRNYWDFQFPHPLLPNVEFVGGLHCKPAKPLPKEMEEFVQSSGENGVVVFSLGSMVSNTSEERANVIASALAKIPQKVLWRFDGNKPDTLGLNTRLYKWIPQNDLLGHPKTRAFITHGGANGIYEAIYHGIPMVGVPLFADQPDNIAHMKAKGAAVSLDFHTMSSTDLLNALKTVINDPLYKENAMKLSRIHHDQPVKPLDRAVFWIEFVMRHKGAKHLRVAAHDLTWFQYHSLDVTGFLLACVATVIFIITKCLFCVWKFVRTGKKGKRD
Protocol: as §1

- amount of covalent adducts with Mit proteins compared with the other diastereomer (S-KET-AG) [1]: higher amounts of covalent adducts
- amount of covalent adducts with Nuc proteins compared with the other diastereomer (S-KET-AG) [2]: higher amounts of covalent adducts
- amount of covalent adducts with Cyt proteins compared with the other diastereomer (S-KET-AG) [3]: higher amounts of covalent adducts
- covalent adduct formation with UGT2B7 compared with the other diastereomer (UGT2B7; R vs S diastereomer): significantly more covalent adducts
- covalent adduct formation with UGT1A1 compared with the other diastereomer (UGT1A1): significantly more covalent adducts
- covalent adduct formation with UGT2B4 compared with the other diastereomer (UGT2B4; R vs S diastereomer): significantly more covalent adducts
SMILES: CC(C(=O)OC1OC(C(=O)O)C(O)C(O)C1O)c1cccc(C(=O)c2ccccc2)c1 (stereo not shown) [R-KET-AG]
- hydrolysis half-life in plasma compared with S-KET-AG [4]: shorter
- acyl migration rate compared with S-KET-AG [5]: higher acyl migration rate
- amounts of covalent adducts with UGT2B (UGT2B7) relative to UGT1A isoforms (UGT2B7): relatively higher amounts of covalent adducts
- amounts of covalent adducts with UGT2B (UGT2B4) relative to UGT1A isoforms (UGT2B4): relatively higher amounts of covalent adducts

— publication PMC9104950, “Stereoselective Covalent Adduct Formation of Acyl Glucuronide Metabolite of Nonsteroidal Anti-Inflammatory Drugs with UDP-Glucuronosyltransferase” (International Journal of Molecular Sciences, 2022)
